We go through six compounds from US20160296506A1, “Methods and Compositions for Treating HIV Infection” (priority 2012, published 2016).

The subject of series [1] is carbamoyl-phosphate synthetase 2, aspartate transcarbamylase, and dihydroorotase (CAD). As to the kind of experiment: CAD activity (phosphorylation at S1859) in IL-2/PHA-stimulated CD4 T cells. Format: cell-based. The method, then: (§1) PLD inhibitors modulate intracellular deoxyribonucleotides levels. […] CD4 T-cells experiments were performed with ani-CD3/CD28-currently completing experiments with IL-2/phytohaemagglutinin (PHA)-stimulated CD4 T cells.

For a further series, the system named is THP-1 cells. Put plainly: dNTP levels in THP-1 cells (HPLC-MS). Format: cell-based. To be noted: statement. The method, then: Briefly, Undifferentiated THP-1 cells (5×10̂6 cells/well) were treated with various inhibitors (10 μM EVJ, 10 μM JWJ, 100 nM rapamycin, 250 nM torin1, or 1 μM Go6976) for 16 h before harvest and extraction for HPLC-MS analysis of dNTP levels. Data represents analysis of triplicate samples.
Briefly, THP-1 cells (2.5×10^5 cells in 0.5 mL of c-RPMI (5×10^5/mL)/well) were seeded into 24-well plates and differentiated with 0.1 μM PMA for 24 h. Cells were then pretreated for 4 h with inhibitors (10 μM EVJ, 10 μM JWJ, 100 nM rapamycin, 250 nM torin1, or 10 μM concentration of two AKT inhibitors for comparison). Cells were then infected with HIV-1-GFP in the continued presence of inhibitors. Levels of infection were determined by flow cytometry (BD Biosciences FACSCalibur) 72 h post-infection. […] This difference is likely due to an increase in PLD1 activity in PMA-treated THP-1 cells.

The test system of another series is CAD. Put plainly: dNTP levels with CAD overexpression. It counts as cell-based. To be noted: FIG. 13.
A short description of the next series: Plasma protein binding. Format: in vitro ADME.
For series [2], the system named is HIV-1. Put plainly: HIV-1 infection of U87.CD4.CXCR4 cells. Format: cell-based. To be noted: data not shown.
The nature of a further series: IV pharmacokinetics. Format: in vivo, mice. To be noted: dose 1 mg/kg; for half-life / Vd: mouse, plasma; for Vd: read-out: Vdss.
For series [3], the system named is HIV-1. Put plainly: HIV-1 infection in PMA-stimulated THP-1 cells (flow cytometry). It counts as cell-based. To be noted: 10 μM, 4 h pretreatment, HIV-1-GFP, 72 h post-infection, FIG. 10.
Series [4] in a line: PO plasma and brain levels. It counts as in vivo, mice. To be noted: dose 10 mg/kg. As to the method: The pharmacokinetic behavior of a representative disclosed PLD inhibitor of the present invention was assessed following […]. Briefly, mice were administered a single dose of a representative PLD inhibitor, either VUO364739 or VU359595 (10 mg/kg) by either intravenous injection or by oral administration. Plasma samples and tissue samples (brain) were isolated at various time points following euthanizing animal. The samples were flash frozen and stored at −80° C. Analysis was carried out by LC-MS/MS following extraction.

The test system of a further series is primary T-cells. Put plainly: dNTP increases in stimulated primary CD4 T-cells. To be noted: FIG. 14. Format: cell-based, human. The method, then:
as §1

Series [5] concerns HIV-1. Put plainly: HIV-1 replication in activated primary CD4+ T cells. To be noted: 10 μM, PHA/IL2 activated after EVJ treatment, FIG. 14. It counts as cell-based, human.
In a further series the test system is U87MG cells. As to the kind of experiment: SILAC proteomic analysis on U87MG cells. To be noted: EVJ on U87MG cells, FIG. 12. Format: cell-based.

Experimental for U87MG cells: A SILAC proteomic analysis was conducted using the PLD1-preferring inhibitor EVJ on U87MG cells.

Regarding `CNC(=O)c1cccc(-c2ccc3c(N4CCOC[C@@H]4C)nc(N4CCOC[C@@H]4C)nc3n2)c1` [AZD2014], the “activity of CAD, phosphorylation at activation residue S1859” value (“activity of CAD, phosphorylation” below) in [1] was “suppress activity”.
Take `NC(=O)NO` [Hydroxyurea]: in [1], the “activity of CAD, phosphorylation” value is reported as “comparative modest effects”.
`NC1(c2ccc(-c3nc4ccn5c(=O)[nH]nc5c4cc3-c3ccccc3)cc2)CCC1` [MK2206, reference compound]: the “Deoxyribonucleotide (dNTP) levels” value with THP-1 cells was “potently reduced”. In addition, in the series with CAD, the “dNTP levels upon CAD over expression” value is given as “continues to block dNTP levels”.
The half-life is the time needed for the level to fall by half in the phase considered. Low readings indicate fast loss, high ones slow loss. As for `O=C(NCCN1CCC2(CC1)C(=O)NCN2c1cccc(F)c1)c1ccc2ccccc2c1` [No. 1, N-(2-(1-(3-fluorophenyl)-4-oxo-1,3,8-triazaspiro [4.5]decan-8-yl)ethyl)-2-naphthamide], the “Plasma Protein Binding (% bound)” value in the series “Plasma protein binding” stood at 98.1 % bound. Moreover, the “HIV-1 infection of U87.CD4.CXCR4 cells” value in the series with HIV-1 [2] was “inhibit HIV-1 infection”. In addition, in the series “IV pharmacokinetics”, the “CI” value is 60.7 mL/min/kg, the half-life is 0.78 h and the Vd was found to be 4.7 L/kg. The “HIV-1 replication in THP-1 cells, undifferentiated vs PMA-differentiated” value in the series with HIV-1 [3] is “inhibits HIV-1 replication under both conditions”. In series [4], the “Brain (ng/kg)” value is recorded as “BLQ”, the “Brain: Plasma” value was “BLQ” and the “Plasma” value came out at 29 ng/kg.
Broadly, the Kp is tissue or fluid exposure divided by exposure in the circulation. With `C[C@@H](CN1CCC(n2c(=O)[nH]c3cc(Br)ccc32)CC1)NC(=O)[C@@H]1C[C@@H]1c1ccccc1` [No. 2, (1R,2S)-N-((S)-1-(4-(5-bromo-2-oxo-2,3-dihydro-1H-benzo[d]imidazol-1-yl)piperidin-1-yl)propan-2-yl)-2-phenylcyclopropane carboxamide], the “dNTP increases in CD4-receptor stimulated primary T-cells from human donors” value with primary T-cells is given as “blunt dNTP increases”. Further, the “Plasma Protein Binding (% bound)” value in the series “Plasma protein binding” amounted to 97.9 % bound. Also, the “HIV-1 infection of U87.CD4.CXCR4 cells” value with HIV-1 [2] is reported as “inhibit HIV-1 infection”. In “IV pharmacokinetics”, the “CI” value is reported as 61.5 mL/min/kg, the half-life was 1.52 h and the Vd was found to be 8.1 L/kg. In the series with HIV-1 [3], the “HIV-1 replication in THP-1 cells, undifferentiated vs PMA-differentiated” value was “more robust effect on HIV-1 replication in PMA-differentiated THP-1 cells”. Moreover, in the series on HIV-1 [5], the “HIV-1 replication in activated primary CD4+ T cells” value is given as “inhibits HIV-1 replication”. Moreover, the “dNTP levels upon CAD over expression” value in the series with CAD is given as “partially rescues the dNTP biosynthetic phenotype”. In [4], the “Brain” value is 29 ng/kg and the “Plasma” value was found to be 39.9 ng/kg. In series [4] (mouse, brain/plasma), the Kp is 0.73. In addition, in series [1], the “activity of CAD, phosphorylation” value was “suppress activity”. Besides, in the series on U87MG cells, the “signaling pathway changed (network analysis)” value is “mTORC1 signaling is the predominant signaling pathway changed”.
For the compound `CCC(=O)N1CCN(c2ccc(-n3c(=O)ccc4cnc5ccc(-c6cnc7ccccc7c6)cc5c43)cc2C(F)(F)F)CC1` [Torin1], in the series on THP-1 cells, the “Deoxyribonucleotide (dNTP) levels” value is given as “potently reduced”. Moreover, the “activity of CAD, phosphorylation” value in [1] was “suppress activity”.
